Experimental data from ChEMBL document CHEMBL1143994, “New terpenoids from Maytenus apurimacensis as MDR reversal agents in the parasite Leishmania” (2008).

Experiments:
Assay type in all cases: functional
[1] = test system: Leishmania tropica; assay: Growth inhibition of multidrug resistant Leishmania tropica at 3 uM in presence of 150 uM daunomycin after 72 hrs by MTT assay relative to control
[2] = test system: Leishmania tropica; assay: Growth inhibition of wild type Leishmania tropica LRC at 1 uM after 72 hrs by MTT assay relative to control; details: read-out: GI
[3] = test system: Leishmania tropica; assay: Growth inhibition of multidrug resistant Leishmania tropica at 1 uM in presence of 150 uM daunomycin after 72 hrs by MTT assay relative to control
[4] = test system: Leishmania tropica; assay: Growth inhibition of wild type Leishmania tropica LRC at 15 uM after 72 hrs by MTT assay relative to control; details: read-out: GI
[5] = test system: Leishmania tropica; assay: Growth inhibition of multidrug resistant Leishmania tropica at 15 uM in presence of 150 uM daunomycin after 72 hrs by MTT assay relative to control
[6] = test system: Leishmania tropica; assay: Growth inhibition of wild type Leishmania tropica LRC at 7 uM after 72 hrs by MTT assay relative to control; details: read-out: GI
[7] = test system: Leishmania tropica; assay: Growth inhibition of multidrug resistant Leishmania tropica at 7 uM in presence of 150 uM daunomycin after 72 hrs by MTT assay relative to control
[8] = test system: Leishmania tropica; assay: Growth inhibition of wild type Leishmania tropica LRC at 3 uM after 72 hrs by MTT assay relative to control; details: read-out: GI

Compound	growth inhibition (GI) [1]	inhibition of growth at 1 µM [2]	growth inhibition (GI) [3]	inhibition of growth at 15 µM [4]	growth inhibition (GI) [5]	inhibition of growth at 7 µM [6]	growth inhibition (GI) [7]	inhibition of growth at 3 µM [8]
CC(=O)O[C@@H]1[C@@H]2[C@@H](OC(=O)c3cccnc3)[C@]3(OC2(C)C)[C@H](C)CC[C@H](OC(=O)c2ccccc2)[C@@]3(C)[C@@H]1OC(=O)c1ccccc1	21.2%	0%	8.6%	2.3%	96.1%	0.8%	59.2%	0%
CC(=O)O[C@@H]1[C@@H]2[C@@H](OC(=O)c3cccnc3)[C@@]3(OC2(C)C)[C@@](C)([C@@H](OC(=O)c2ccccc2)CC[C@@]3(C)O)[C@@H]1OC(=O)c1ccccc1	62.8%	0%	15.8%	13.6%	98.5%	0%	90.2%	0%
